Measured values: BindingDB's records for doi:10.1021/acs.jmedchem.6b01851 (Amgen, 2017)

target: Sodium channel protein type 5 subunit alpha (Homo sapiens, UniProt Q14524); test: Inhibition of human Nav1.5 expressed in HEK293 cells assessed as reduction in peak inward current by ionworks quattro electrophysiology assay
Sequence (Q14524 whole entry): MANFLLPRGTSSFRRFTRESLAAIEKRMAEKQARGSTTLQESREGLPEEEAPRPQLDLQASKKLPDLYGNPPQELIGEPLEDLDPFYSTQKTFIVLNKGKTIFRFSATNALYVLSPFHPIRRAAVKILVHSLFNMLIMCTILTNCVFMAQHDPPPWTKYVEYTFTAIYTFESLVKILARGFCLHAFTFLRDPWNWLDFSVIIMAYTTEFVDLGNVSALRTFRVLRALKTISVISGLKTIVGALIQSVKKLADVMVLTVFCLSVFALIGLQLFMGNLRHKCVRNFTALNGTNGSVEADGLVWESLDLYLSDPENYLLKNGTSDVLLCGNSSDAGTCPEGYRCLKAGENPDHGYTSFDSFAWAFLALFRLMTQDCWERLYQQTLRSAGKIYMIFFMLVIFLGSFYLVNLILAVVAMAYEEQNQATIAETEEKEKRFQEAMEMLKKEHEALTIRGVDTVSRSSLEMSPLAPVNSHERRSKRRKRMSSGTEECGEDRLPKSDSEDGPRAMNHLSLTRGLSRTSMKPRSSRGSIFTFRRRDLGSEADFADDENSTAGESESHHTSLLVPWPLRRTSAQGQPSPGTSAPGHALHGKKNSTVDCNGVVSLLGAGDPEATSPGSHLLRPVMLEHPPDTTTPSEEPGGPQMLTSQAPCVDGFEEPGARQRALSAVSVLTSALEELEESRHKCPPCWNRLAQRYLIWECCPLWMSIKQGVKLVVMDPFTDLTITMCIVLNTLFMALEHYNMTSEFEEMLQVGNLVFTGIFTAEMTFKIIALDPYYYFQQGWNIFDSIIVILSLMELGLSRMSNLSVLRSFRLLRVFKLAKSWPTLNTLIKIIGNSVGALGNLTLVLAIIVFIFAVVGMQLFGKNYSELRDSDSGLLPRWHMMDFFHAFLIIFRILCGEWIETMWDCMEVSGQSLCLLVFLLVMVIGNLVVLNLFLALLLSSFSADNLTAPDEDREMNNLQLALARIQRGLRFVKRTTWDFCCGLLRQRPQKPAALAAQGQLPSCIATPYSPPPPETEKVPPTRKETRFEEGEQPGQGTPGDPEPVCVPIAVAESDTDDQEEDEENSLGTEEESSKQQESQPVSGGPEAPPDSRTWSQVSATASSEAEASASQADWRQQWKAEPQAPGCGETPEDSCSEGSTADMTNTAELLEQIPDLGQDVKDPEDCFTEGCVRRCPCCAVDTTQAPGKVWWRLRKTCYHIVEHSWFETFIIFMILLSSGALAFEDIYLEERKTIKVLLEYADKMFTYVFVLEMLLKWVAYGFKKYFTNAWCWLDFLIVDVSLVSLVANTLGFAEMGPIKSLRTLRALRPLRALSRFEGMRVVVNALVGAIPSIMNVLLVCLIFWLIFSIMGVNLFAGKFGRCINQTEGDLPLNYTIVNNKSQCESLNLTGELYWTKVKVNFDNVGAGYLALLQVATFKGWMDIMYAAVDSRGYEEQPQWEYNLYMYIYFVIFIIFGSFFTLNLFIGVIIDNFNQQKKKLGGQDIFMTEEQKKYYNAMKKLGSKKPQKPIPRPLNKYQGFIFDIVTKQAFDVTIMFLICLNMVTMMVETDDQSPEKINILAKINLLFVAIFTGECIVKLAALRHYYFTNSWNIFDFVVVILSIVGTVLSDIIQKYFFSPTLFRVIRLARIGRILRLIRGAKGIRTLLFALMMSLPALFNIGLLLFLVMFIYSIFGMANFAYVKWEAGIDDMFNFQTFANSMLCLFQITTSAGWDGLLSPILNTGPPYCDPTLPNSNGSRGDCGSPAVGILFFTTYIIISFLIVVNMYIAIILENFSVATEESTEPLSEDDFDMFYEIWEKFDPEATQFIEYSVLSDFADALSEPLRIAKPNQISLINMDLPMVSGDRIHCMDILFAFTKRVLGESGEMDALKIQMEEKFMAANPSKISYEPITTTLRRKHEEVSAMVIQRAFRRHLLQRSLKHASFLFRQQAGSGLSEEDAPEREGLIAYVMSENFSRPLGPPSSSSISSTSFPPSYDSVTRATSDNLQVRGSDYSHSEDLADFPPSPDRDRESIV

| Compound | IC50 [µM] |
| --- | --- |
| COc1cc(-c2cccc(Cl)c2)c(F)cc1-c1nccc2cc(S(=O)(=O)Nc3ccon3)ccc12 [1-(3'-chloro-2-fluoro-5-methoxy-4-biphenylyl)-N-3-isoxazolyl-6-isoquinolinesulfonamide] | > 10 |
| COc1cc(-c2cccc(F)c2)c(Cl)cc1-c1ncnc2cc(S(=O)(=O)Nc3ccon3)ccc12 [4-(2-chloro-3'-fluoro-5-methoxy-4-biphenylyl)-N-3-isoxazolyl-7-quinazolinesulfonamide] | > 10 |
| COc1cc(-c2cccc(F)c2)c(Cl)cc1-c1nccc2cc(S(=O)(=O)Nc3ncon3)ccc12 [1-(2-chloro-3'-fluoro-5-methoxy-4-biphenylyl)-N-1,2,4-oxadiazol-3-yl-6-isoquinolinesulfonamide] | > 10 |
| COc1cc(-c2cccc(F)c2)c(Cl)cc1-c1nn(C)c(=O)c2cc(S(=O)(=O)Nc3ccon3)ccc12 [1-(2-chloro-3'-fluoro-5-methoxy-4-biphenylyl)-N-3-isoxazolyl-3-methyl-4-oxo-3,4-dihydro-6-phthalazinesulfonamide] | > 10 |
| COc1cc(-c2cccc(F)c2)c(Cl)cc1-c1ncc(O)c2cc(S(=O)(=O)Nc3ccon3)ccc12 [1-(2-chloro-3'-fluoro-5-methoxy-4-biphenylyl)-4-hydroxy-N-3-isoxazolyl-6-isoquinolinesulfonamide] | > 10 |
| COc1cc(-c2cccc(F)c2)c(Cl)cc1-c1nccc2cc(S(=O)(=O)Nc3cccnn3)ccc12 [1-(2-chloro-3'-fluoro-5-methoxy-4-biphenylyl)-N-3-pyridazinyl-6-isoquinolinesulfonamide] | > 10 |
